How the values were obtained:
Experiment in all cases: relative viability (nuclei count vs DMSO), 5 days (fraction); higher = more cells survive
[1] = compound: C1CN(CCC1C(C2=CC3=C(C=C2)OCO3)(C4=CC5=C(C=C4)OCO5)O)C(=O)OC6=CC=C(C=C6)[N+](=O)[O-] [JZL-184] + CS(=O)(=O)N1CCN(Cc2cc3nc(-c4cccc5[nH]ncc45)nc(N4CCOCC4)c3s2)CC1 [Pictilisib] (partner 1 µM)
Outline: (§1)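 Relative viability was taken as the ratio of nuclei in treated wells to nuclei in vehicle wells. Lung cancer cell lines in 1536-well plates received compounds by pin tool one day after seeding, either one drug alone or a fixed anchor-drug dose plus five library-drug doses (not always all listed) in √10 steps. Nuclei were counted on 4× images after 5 days of treatment, and values are medians of duplicate plates.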

[2] = compound: C1CN(CCC1C(C2=CC3=C(C=C2)OCO3)(C4=CC5=C(C=C4)OCO5)O)C(=O)OC6=CC=C(C=C6)[N+](=O)[O-] [JZL-184] + CCNC(=O)c1noc(-c2cc(C(C)C)c(O)cc2O)c1-c1ccc(CN2CCOCC2)cc1 [Luminespib] (partner 0.01 µM)
Outline: as §1

[3] = compound: C1CN(CCC1C(C2=CC3=C(C=C2)OCO3)(C4=CC5=C(C=C4)OCO5)O)C(=O)OC6=CC=C(C=C6)[N+](=O)[O-] [JZL-184] + C[C@@H](Oc1cc(-c2cnn(C3CCNCC3)c2)cnc1N)c1c(Cl)ccc(F)c1Cl [Crizotinib] (partner 1 µM)
Outline: as §1

[4] = compound: C1CN(CCC1C(C2=CC3=C(C=C2)OCO3)(C4=CC5=C(C=C4)OCO5)O)C(=O)OC6=CC=C(C=C6)[N+](=O)[O-] [JZL-184] + C[C@]1(O)C[C@@H](c2nc(-c3ccc4ccc(-c5ccccc5)nc4c3)c3c(N)nccn32)C1 [Linsitinib] (partner 1 µM)
Outline: as §1

[5] = compound: C1CN(CCC1C(C2=CC3=C(C=C2)OCO3)(C4=CC5=C(C=C4)OCO5)O)C(=O)OC6=CC=C(C=C6)[N+](=O)[O-] [JZL-184] + N=C(N)NC(=N)NCCc1ccccc1 [Phenformin] (partner 250 µM)
Outline: as §1

Row | Cell Line | relative viability ([1]; first compound 0.04 µM) | relative viability ([1]; first compound 0.4 µM) | relative viability ([1]; first compound 1.265 µM) | relative viability ([1]; first compound 4 µM) | relative viability ([2]; first compound 0.04 µM) | relative viability ([2]; first compound 0.4 µM) | relative viability ([2]; first compound 1.265 µM) | relative viability ([2]; first compound 4 µM) | relative viability ([3]; first compound 0.04 µM) | relative viability ([3]; first compound 0.4 µM) | relative viability ([3]; first compound 1.265 µM) | relative viability ([3]; first compound 4 µM) | relative viability ([4]; first compound 0.04 µM) | relative viability ([4]; first compound 0.4 µM) | relative viability ([4]; first compound 1.265 µM) | relative viability ([4]; first compound 4 µM) | relative viability ([5]; first compound 0.04 µM) | relative viability ([5]; first compound 0.4 µM) | relative viability ([5]; first compound 1.265 µM) | relative viability ([5]; first compound 4 µM)
1 | NCI-H2347 | 0.768 | 0.654 | 0.61 | 0.688 | 0.321 | 0.553 | 0.497 | 0.587 | 0.968 | 0.835 | 0.694 | 0.72 | 0.98 | 0.953 | 0.926 | 0.946 | 0.357 | 0.393 | 0.369 | 0.536
2 | H3255 | 0.524 | 0.454 | 0.526 | 0.49 | 1.03 | 0.765 | 1 | 0.938 | 1.17 | 0.748 | 0.91 | 0.786 | 1.05 | 0.917 | 1.09 | 0.892 | 0.321 | 0.323 | 0.336 | 0.422
3 | NCI-H441 | 0.631 | 0.409 | 0.607 | 0.423 | 0.442 | 0.325 | 0.365 | 0.347 | 0.767 | 0.54 | 0.793 | 0.58 | 0.534 | 0.401 | 0.672 | 0.606 | 0.818 | 0.802 | 0.914 | 0.923
4 | NCI-H2228 | 0.235 | 0.311 | 0.309 | 0.518 | 0.142 | 0.1 | 0.168 | 0.122 | 0.543 | 0.442 | 0.517 | 0.511 | 0.642 | 0.892 | 0.636 | 0.616 | 0.405 | 0.239 | 0.317 | 0.412
5 | NCI-H1975 | 0.347 | 0.281 | 0.304 | 0.287 | 0.275 | 0.292 | 0.265 | 0.168 | 1.11 | 0.901 | 0.995 | 0.975 | 1.04 | 1.04 | 1.02 | 0.896 | 0.414 | 0.411 | 0.395 | 0.397
6 | NCI-H647 | 0.495 | 0.294 | 0.566 | 0.468 | 0.286 | 0.128 | 0.0998 | 0.216 | 1.36 | 0.956 | 1 | 1.02 | 1.18 | 1.06 | 1.19 | 1.26 | 0.532 | 0.527 | 0.595 | 0.546
7 | A-427 | 0.797 | 0.639 | 0.852 | 0.697 | 1.14 | 0.79 | 1.11 | 0.972 | 1.03 | 0.907 | 0.914 | 0.77 | 1.15 | 1.17 | 1.18 | 1.1 | 0.308 | 0.327 | 0.441 | 0.306
8 | LXF-289 | 0.865 | 0.71 | 0.842 | 0.779 | 0.917 | 0.57 | 0.693 | 0.618 | 0.813 | 0.819 | 0.765 | 0.75 | 1.05 | 0.94 | 0.971 | 0.924 | 0.574 | 0.496 | 0.546 | 0.525
